Measurements reported in ChEMBL document CHEMBL1201862, “PubChem BioAssay data set” (2004).
Active and inactive are the calls of the source.

Tests used:
[1] = Luminescence Cell-Based Dose Retest to Confirm Inhibitors of Cancer Stem Cells. [Related pubchem assays (depositor defined):AID2717, AID2721]; type: functional; settings: Homo sapiens
[2] = target: T1, Beta-2 adrenergic receptor (Homo sapiens, UniProt P07550); assay: beta2AR agonists driving receptor internalization, dose response, cell-based, FAP fluorogen, flow cytometry, cherry pick 1 (AID 588763); type: functional
T1 sequence (P07550 whole entry): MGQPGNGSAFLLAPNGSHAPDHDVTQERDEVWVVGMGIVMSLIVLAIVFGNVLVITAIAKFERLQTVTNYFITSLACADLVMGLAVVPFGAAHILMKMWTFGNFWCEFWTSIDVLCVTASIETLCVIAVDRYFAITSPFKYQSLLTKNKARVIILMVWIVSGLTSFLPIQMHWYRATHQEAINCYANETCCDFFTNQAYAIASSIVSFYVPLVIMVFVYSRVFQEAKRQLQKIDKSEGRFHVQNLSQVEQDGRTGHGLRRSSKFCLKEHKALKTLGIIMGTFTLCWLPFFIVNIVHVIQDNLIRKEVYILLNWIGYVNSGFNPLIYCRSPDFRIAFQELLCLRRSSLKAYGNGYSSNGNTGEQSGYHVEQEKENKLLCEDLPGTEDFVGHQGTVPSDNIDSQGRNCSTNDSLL

[3] = target: T1, Beta-2 adrenergic receptor; assay: Dose response for HTS for Beta-2AR agonists via FAP method from Powderset3.; type: functional
[4] = HepG2 cell cytotoxicity, dose response, cytotoxicity control, ATP luminescence, cherry-pick, activator set 2 (AID 1053143); type: functional, cell-based
[5] = tested on: HEK293; assay: cells; type: functional, cell-based; settings: Homo sapiens
[6] = MDA-MB-231 cell growth inhibition, dose response, cytotoxicity control for RAD54 inhibitor project, CellTiter-Glo luminescence, cherry-pick (AID 651692); type: functional, cell-based
[7] = target: T2, DNA repair and recombination protein RAD54-like (Homo sapiens, UniProt Q92698); assay: inhibitors of human RAD54 branch migration, confirmation, biochemical, fluorescence, cherry-picked samples, dose series (AID 651657); type: functional
T2 sequence (Q92698 whole entry): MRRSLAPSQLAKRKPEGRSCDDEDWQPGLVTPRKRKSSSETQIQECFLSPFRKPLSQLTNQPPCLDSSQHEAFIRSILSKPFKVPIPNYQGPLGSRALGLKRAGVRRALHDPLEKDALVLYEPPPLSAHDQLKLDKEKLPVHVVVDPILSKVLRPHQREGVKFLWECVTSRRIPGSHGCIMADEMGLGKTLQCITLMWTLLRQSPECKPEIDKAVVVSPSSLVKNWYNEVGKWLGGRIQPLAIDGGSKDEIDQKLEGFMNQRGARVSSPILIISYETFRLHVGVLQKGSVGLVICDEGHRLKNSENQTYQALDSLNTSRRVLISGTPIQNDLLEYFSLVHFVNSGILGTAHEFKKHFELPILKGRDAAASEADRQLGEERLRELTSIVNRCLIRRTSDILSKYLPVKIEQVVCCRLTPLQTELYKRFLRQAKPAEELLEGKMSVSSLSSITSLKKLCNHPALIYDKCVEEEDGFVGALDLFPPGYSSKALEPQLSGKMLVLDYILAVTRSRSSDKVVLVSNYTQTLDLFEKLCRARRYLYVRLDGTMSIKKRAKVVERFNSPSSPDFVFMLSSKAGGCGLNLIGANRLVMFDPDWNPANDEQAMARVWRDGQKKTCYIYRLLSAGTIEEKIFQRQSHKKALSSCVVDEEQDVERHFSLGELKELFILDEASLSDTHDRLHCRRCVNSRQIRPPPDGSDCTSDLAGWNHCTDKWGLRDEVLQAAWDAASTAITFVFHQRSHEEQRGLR

[8] = target: Nuclear receptor subfamily 0 group B member 1 (Homo sapiens, UniProt P51843); assay: Luminescence-based cell-based high throughput dose response assay for inhibitors of the orphan nuclear receptor subfamily 0, group B, member 1 (DAX1; NR0B1). [Related pubchem assays (depositor defined):AID504766, AID504790]; type: functional
Sequence of Nuclear receptor subfamily 0 group B member 1 (P51843 whole entry): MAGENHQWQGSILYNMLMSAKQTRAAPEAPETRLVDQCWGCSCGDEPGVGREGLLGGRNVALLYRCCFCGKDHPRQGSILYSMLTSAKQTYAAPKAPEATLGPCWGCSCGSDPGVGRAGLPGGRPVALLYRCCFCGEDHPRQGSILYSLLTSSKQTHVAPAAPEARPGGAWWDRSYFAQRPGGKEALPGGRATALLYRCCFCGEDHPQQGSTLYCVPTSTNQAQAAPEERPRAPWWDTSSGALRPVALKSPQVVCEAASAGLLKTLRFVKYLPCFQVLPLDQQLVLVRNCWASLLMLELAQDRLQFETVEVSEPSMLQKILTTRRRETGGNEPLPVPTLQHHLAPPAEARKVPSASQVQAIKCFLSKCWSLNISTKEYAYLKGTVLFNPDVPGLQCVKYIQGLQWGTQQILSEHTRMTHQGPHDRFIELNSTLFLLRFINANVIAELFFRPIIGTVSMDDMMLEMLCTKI

[9] = target: T3, Corticotropin-releasing factor receptor 2/Corticotropin-releasing factor-binding protein (Homo sapiens, UniProt P24387+Q13324); assay: Dose Response confirmation of uHTS hits for small molecule antagonists of the CRF-binding protein and CRF-R2 receptor complex.; type: functional; settings: read-out: IC50_Mean
T3 sequence (Q13324 whole entry): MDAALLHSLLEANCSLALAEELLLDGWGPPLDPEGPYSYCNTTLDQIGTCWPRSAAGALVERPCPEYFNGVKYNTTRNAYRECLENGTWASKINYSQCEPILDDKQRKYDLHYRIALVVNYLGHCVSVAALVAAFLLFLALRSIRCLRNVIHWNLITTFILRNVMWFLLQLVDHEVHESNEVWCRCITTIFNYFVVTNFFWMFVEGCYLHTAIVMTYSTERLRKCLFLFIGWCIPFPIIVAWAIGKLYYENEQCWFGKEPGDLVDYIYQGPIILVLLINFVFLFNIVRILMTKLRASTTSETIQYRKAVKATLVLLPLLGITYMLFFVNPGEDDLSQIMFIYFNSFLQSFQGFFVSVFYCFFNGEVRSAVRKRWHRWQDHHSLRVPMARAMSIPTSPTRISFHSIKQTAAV
T3 sequence (P24387 whole entry): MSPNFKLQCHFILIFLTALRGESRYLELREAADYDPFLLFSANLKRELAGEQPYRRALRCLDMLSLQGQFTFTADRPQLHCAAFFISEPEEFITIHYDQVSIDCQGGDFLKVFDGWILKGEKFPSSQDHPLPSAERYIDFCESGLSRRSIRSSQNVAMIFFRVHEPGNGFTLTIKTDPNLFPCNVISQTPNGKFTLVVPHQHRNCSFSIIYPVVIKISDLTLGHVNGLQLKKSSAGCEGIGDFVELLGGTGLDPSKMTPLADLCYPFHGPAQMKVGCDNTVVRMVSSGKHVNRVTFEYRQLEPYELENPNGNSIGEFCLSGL

[10] = target: T4, Tyrosine-protein phosphatase non-receptor type 22 (Homo sapiens, UniProt Q9Y2R2); assay: PTPN22 phosphatase inhibition, dose response, selectivity assay for STEP inhibitor project, biochemical (AID 624241); type: functional
T4 sequence (Q9Y2R2 whole entry): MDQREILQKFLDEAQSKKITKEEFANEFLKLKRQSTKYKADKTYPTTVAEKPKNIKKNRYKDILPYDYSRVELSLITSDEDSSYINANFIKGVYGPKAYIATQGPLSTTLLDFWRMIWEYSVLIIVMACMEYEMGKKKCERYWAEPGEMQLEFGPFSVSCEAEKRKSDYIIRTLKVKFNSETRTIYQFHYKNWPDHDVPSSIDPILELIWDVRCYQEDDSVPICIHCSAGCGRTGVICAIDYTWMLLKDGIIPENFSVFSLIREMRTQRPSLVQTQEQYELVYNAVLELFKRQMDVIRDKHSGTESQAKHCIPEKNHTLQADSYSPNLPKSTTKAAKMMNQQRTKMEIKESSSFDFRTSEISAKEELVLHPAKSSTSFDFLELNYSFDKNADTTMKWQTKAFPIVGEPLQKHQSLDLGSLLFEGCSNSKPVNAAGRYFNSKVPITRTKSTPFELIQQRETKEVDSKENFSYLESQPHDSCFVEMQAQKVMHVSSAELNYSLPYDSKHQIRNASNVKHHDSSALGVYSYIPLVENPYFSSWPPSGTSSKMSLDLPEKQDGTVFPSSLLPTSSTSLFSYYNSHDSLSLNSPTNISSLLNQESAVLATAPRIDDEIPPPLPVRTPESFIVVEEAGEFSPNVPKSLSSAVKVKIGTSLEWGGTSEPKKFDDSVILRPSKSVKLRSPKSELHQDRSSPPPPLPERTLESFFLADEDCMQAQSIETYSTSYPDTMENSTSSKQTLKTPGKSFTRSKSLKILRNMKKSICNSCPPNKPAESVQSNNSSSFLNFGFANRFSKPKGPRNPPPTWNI

[11] = target: Tyrosine-protein phosphatase non-receptor type 5 (Homo sapiens, UniProt P54829); assay: STEP phosphatase inhibitors, confirmation, biochemical, fluorescence intensity, uHTS hits (AID 602372); type: functional; settings: read-out: IC50_Mean
Sequence of Tyrosine-protein phosphatase non-receptor type 5 (P54829 whole entry): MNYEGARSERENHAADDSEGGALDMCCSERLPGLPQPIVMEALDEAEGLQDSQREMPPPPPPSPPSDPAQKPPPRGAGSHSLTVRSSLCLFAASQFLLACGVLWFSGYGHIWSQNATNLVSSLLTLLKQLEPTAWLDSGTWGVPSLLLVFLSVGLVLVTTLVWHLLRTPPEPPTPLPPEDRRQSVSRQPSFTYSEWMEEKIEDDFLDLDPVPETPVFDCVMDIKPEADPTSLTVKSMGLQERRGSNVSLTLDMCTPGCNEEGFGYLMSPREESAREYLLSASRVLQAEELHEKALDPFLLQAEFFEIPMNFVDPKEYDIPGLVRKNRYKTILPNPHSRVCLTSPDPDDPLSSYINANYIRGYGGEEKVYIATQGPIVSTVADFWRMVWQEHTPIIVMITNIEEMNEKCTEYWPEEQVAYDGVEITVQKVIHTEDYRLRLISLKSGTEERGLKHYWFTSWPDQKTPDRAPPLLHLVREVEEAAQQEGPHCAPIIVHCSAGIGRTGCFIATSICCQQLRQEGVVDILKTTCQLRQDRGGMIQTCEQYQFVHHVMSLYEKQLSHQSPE

[12] = target: Dual specificity protein phosphatase 3 (Homo sapiens, UniProt P51452); assay: VHR phosphatase inhibition, dose response, selectivity assay for STEP inhibitor project, biochemical (AID 602374); type: functional; settings: read-out: IC50_Mean
Sequence of Dual specificity protein phosphatase 3 (P51452 whole entry, the tested form may be a part): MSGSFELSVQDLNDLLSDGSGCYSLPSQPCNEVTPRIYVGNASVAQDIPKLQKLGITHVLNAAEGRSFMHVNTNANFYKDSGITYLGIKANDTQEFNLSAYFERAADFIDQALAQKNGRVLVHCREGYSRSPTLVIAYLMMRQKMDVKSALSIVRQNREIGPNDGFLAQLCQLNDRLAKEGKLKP

[13] = target: T5, Carboxy-terminal domain RNA polymerase II polypeptide A small phosphatase 1 (Homo sapiens, UniProt Q9GZU7); assay: inhibitors of CTDSP1, concentration-response testing, biochemical assay, absorbance-based, actives from ultra-high-throughput screening (AID 540297); type: functional
T5 sequence (Q9GZU7 whole entry): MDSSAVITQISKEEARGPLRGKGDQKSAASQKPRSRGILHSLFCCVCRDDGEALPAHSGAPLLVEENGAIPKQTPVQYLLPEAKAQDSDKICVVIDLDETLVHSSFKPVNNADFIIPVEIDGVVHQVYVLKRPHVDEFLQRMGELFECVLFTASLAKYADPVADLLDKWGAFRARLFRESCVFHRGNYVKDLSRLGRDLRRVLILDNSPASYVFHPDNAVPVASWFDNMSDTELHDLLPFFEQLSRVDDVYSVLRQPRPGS

[14] = target: Tyrosine-protein phosphatase non-receptor type 11 (Homo sapiens, UniProt Q06124); assay: SHP2 phosphatase inhibition, dose response, selectivity assay for STEP inhibitor project, biochemical (AID 602367); type: functional; settings: read-out: IC50_Mean
Sequence of Tyrosine-protein phosphatase non-receptor type 11 (Q06124 whole entry): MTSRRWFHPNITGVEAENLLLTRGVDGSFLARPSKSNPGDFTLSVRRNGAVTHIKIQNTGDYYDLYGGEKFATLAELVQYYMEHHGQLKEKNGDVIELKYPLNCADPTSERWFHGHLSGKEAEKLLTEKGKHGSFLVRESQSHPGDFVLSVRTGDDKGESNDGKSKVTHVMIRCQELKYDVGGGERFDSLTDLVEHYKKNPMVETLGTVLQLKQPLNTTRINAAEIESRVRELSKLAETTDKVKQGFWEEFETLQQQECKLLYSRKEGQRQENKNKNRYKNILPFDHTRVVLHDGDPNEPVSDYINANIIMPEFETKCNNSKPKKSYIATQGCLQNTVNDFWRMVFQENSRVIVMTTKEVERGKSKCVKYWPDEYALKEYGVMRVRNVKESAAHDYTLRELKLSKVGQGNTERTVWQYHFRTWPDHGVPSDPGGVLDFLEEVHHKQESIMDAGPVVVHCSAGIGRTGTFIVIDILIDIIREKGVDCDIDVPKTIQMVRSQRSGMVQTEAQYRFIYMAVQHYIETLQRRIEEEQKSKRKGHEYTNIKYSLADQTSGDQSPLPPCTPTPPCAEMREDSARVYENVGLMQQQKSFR

[15] = target: T3, Corticotropin-releasing factor receptor 2/Corticotropin-releasing factor-binding protein; assay: activators of CRF receptor 2 with binding protein – uHTS hits, confirmation (AID 602473); type: functional; settings: read-out: EC50_Mean
[16] = target: T6, Small ubiquitin-related modifier 1 (Homo sapiens, UniProt P63165); assay: inhibitors of SUMO1 partner interactions, dose response, biochemical, FRET (AID 624383); type: functional; settings: read-out: IC50_Mean
T6 sequence (P63165 whole entry): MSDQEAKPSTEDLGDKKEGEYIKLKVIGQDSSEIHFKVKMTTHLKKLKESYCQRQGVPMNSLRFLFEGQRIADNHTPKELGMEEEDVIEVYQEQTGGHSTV

[17] = target: T6, Small ubiquitin-related modifier 1; assay: inhibitors of SUMO1 peptide binding, dose response, biochemical, fluorescence polarization, uHTS hits (AID 624382); type: functional; settings: read-out: IC50_Mean
[18] = tested on: HEK293; assay: HEK293T cell cytotoxicity, dose response, cytotoxicity control, ATP luminescence, cherry-pick samples (AID 687005); type: functional, cell-based; settings: Homo sapiens;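 note: cells exposed to compound for 48 hours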
[19] = tested on: HeLa; assay: HeLa cell cytotoxicity, dose response, cytotoxicity control, ATP luminescence, cherry-pick samples (AID 687004); type: functional, cell-based; settings: Homo sapiens
[20] = HEK293 Cytotoxicity Assay Measured in Cell-Based System Using Plate Reader - 7071-01_Inhibitor_Dose_CherryPick_Activity_Set2.; type: functional
[21] = target: Arf-GAP with SH3 domain, ANK repeat and PH domain-containing protein 1 (Homo sapiens, UniProt Q9ULH1); type: functional;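 note: biochemical fluorescence polarization dose–response screen measuring inhibition of ASAP1; ASAP1 GAP domain stimulating GTP hydrolysis by truncated human ARF1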
Sequence of Arf-GAP with SH3 domain, ANK repeat and PH domain-containing protein 1 (Q9ULH1 whole entry, the tested form may be a part): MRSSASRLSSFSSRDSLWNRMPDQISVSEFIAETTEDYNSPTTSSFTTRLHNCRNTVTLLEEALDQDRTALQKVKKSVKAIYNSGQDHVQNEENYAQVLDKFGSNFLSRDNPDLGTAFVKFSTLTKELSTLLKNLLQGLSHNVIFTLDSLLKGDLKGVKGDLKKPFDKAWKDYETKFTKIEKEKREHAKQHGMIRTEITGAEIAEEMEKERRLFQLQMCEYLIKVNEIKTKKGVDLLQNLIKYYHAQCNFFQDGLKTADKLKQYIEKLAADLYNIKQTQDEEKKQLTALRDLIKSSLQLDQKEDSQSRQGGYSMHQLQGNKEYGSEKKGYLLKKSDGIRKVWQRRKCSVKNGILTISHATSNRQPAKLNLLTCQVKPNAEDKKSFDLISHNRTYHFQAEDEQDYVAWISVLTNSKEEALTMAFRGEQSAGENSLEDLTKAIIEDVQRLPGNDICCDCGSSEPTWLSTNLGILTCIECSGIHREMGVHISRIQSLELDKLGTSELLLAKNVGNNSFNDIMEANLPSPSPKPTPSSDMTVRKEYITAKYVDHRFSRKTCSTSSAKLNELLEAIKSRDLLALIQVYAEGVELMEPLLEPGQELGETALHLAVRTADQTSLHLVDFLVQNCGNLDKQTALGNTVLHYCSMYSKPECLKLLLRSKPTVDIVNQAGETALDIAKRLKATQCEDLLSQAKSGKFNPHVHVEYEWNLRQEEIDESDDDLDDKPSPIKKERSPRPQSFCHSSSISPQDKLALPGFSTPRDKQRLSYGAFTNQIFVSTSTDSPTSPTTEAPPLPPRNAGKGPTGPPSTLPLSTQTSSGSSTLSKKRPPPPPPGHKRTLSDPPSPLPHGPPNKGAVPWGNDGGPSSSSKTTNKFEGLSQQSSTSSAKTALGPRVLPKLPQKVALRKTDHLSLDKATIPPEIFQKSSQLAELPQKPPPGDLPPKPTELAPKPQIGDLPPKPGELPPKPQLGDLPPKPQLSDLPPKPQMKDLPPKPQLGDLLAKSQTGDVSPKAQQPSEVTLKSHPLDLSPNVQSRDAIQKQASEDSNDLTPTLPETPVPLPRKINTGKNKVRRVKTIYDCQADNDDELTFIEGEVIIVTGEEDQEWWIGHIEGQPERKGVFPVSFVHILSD

[22] = target: ADP-ribosylation factor GTPase-activating protein 1 (Rattus norvegicus, UniProt Q62848); assay: Fluorescence polarization-based biochemical high throughput dose response screening assay to identify inhibitors of ADP-ribosylation factor GTPase activating protein 1 (ARFGAP1).; type: functional
Sequence of ADP-ribosylation factor GTPase-activating protein 1 (Q62848 whole entry): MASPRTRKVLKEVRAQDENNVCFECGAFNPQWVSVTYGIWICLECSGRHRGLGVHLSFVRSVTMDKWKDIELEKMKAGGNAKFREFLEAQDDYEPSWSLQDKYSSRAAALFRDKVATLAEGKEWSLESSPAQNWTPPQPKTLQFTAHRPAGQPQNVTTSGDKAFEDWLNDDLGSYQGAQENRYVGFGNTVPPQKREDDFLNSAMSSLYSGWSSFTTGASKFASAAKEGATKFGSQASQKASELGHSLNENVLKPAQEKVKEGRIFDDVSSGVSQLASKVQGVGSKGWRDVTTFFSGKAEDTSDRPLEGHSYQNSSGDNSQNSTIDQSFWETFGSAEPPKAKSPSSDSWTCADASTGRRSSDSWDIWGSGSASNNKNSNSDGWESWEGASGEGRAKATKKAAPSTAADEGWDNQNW

For `Cc1ncc(CN2CCCC(C(=O)Nc3ccc(-c4cccc(F)c4)cc3)C2)s1` (configuration not stated), the AC50 [1] was 6.84 µM (active), the EC50 [2] was 3.37 µM (active) and the EC50 [3] was 0.731 µM (active).
For `CCN1C(=O)CCN(C2CCCC2)c2nc(Nc3ccc(C(=O)NC4CCN(C)CC4)cc3OC)ncc21`, the AC50 [4] was 13 µM (active), the IC50 [5] was > 67.5 µM (inactive) and the AC50 [6] was 36.4 µM (active). The AC50 [7] was 39.3 µM (active) and the IC50 [8] was > 67.5 µM (inactive).
With `CN(C)c1ccc(C(=O)OCC(=O)Nc2ccc(S(N)(=O)=O)cc2)cc1` the IC50 [9] was > 47.1 µM (inactive), the IC50 [10] was 67.7 µM (inactive) and the IC50 [11] was 7.3 µM (active). For the same molecule, the IC50 [12] was 6.56 µM (active), the IC50 [13] was 8.63 µM (active) and the IC50 [14] was 4.13 µM (active). For the same molecule, the EC50 [15] was > 53 µM (inactive), the IC50 [16] was 12.8 µM (active) and the IC50 [17] was > 66.6 µM (inactive).
In the case of `C[C@@H](NC(=O)C[C@@H]1CC[C@@H]2[C@H](COC[C@H](O)CN2Cc2cc(F)ccc2F)O1)c1ccccc1`, the AC50 [18] is reported as 5.05 µM (active), the AC50 [19] is reported as > 52 µM (inactive) and the AC50 [20] is reported as 5.05 µM (active).
For `CC1=CC2=NC(=O)/C(=C\c3ccc(-c4cccc(Cl)c4)o3)C(=N)N2O1`, the IC50 [21] was 13.3 µM (inactive) and the IC50 [22] was 2.03 µM (active).
